Source: patent US12692230B2, “(1 h-indol-5-yl)acrylamide derivatives as inhibitors of TEAD proteins and the hippo-YAP1/TAZ signaling cascade for the treatment of cancer” (Sanofi, priority 2020, dated 2026)
pIC50: −log10 of the molar value.

What follows are compounds tested on TEAD responsive promoter element (8XGTIIC-Luciferase; YAP1-TEAD and TAZ-TEAD activity) (assay: TEAD-Luciferase reporter assay). Conditions: Homo sapiens; luciferase activity in tumor cell lines with stable integration of the 8XGTIIC-Luciferase construct; 10 doses between 1 and 10000 nM, 48 hrs.
Format: cell-based
Excerpt: TEAD-Luciferase Reporter Assay
Luciferase-based gene reporter assays were used, employing the TEAD responsive promoter element that are stably integrated to different human tumor cell lines in order to monitor YAP1-TEAD and TAZ-TEAD activity and to study YAP1/TAZ-TEAD activity modulation by small molecule compounds. Luciferase-based gene reporter assays employing the GAPDH promoter element and stably integrated to different human tumor cell lines are used as counter screen control cell lines.
Tumor cell lines with stable integration of the 8XGTIIC-Luciferase construct (Dupont et al., Nature 2011) or the GAPDH-Luciferase control plasmid, are seeded in culture medium in 96-well plates at a density of 8000 cells/well. Following an overnight incubation in a 37° C., 5% CO2 growth chamber, cells are treated with compounds described above at 10 doses ranging between 1 and 10000 nM for 48 hrs. After compound incubation, cells are lysed with Bright-Glo Luciferase Assay System (Promega E2620) and luciferase activity is measured using a luminescent plate reader.
The inhibitory activity of the compounds with respect to luciferase activity is given by the concentration which inhibits 50% of activity of non-treated cells. IC50s are determined with a nonlinear regression model on XLfit software analysis (IDBS, UK).

SMILES | pIC50
C=CC(=O)Nc1ccc2c(ccn2-c2cncc(F)c2)c1 [Example 67, N-(1-(5-fluoropyridin-3-yl)-1H-indol-5-yl)acrylamide] | 5.07
C=CC(=O)Nc1ccc2c(ccn2-c2ccnc(C(F)(F)F)c2)c1 [Example 68, N-(1-(2-(trifluoromethyl)pyridin-4-yl)-1H-indol-5-yl)acrylamide] | 5.96
C=CC(=O)Nc1ccc2c(c1)c(C)cn2-c1ccc(C(F)(F)F)cc1 [Example 69, N-(3-methyl-1-(4-(trifluoromethyl)phenyl)-1H-indol-5-yl)acrylamide] | 8.05
C=CC(=O)Nc1ccc2c(c1)cc(C)n2-c1ccc(C(F)(F)F)cc1 [Example 70, N-(2-methyl-1-(4-(trifluoromethyl)phenyl)-1H-indol-5-yl)acrylamide] | 7.92
C=CC(=O)N(C)c1ccc2c(c1)cc(C)n2-c1ccc(C(F)(F)F)cc1 [Example 71, N-methyl-N-[2-methyl-1-[4-(trifluoromethyl)phenyl]indol-5-yl]acrylamide] | 7.62
C=CC(=O)Nc1ccc2c(c1)c(COC)cn2-c1ccc(C(F)(F)F)cc1 [Example 72, N-(3-(methoxymethyl)-1-(4-(trifluoromethyl)phenyl)-1H-indol-5-yl)acrylamide] | 7.82
C=CC(=O)Nc1cc2ccn(-c3ccc(C(F)(F)F)cc3)c2cc1F [Example 73, N-(6-fluoro-1-(4-(trifluoromethyl)phenyl)-1H-indol-5-yl)acrylamide] | 6.61
C=CC(=O)N(C)c1ccc2c(ccn2-c2ccc(C(F)(F)F)cc2)c1 [Example 74, N-methyl-N-(1-(4-(trifluoromethyl)phenyl)-1H-indol-5-yl)acrylamide] | 6.97
C/C=C/C(=O)Nc1ccc2c(ccn2-c2ccc(C(F)(F)F)cc2)c1 [Example 75, (E)-N-(1-(4-(trifluoromethyl)phenyl)-1H-indol-5-yl)but-2-enamide] | 6.34
CN(C)C/C=C/C(=O)Nc1ccc2c(ccn2-c2ccc(C(F)(F)F)cc2)c1 [Example 76, (E)-4-(dimethylamino)-N-(1-(4-(trifluoromethyl)phenyl)-1H-indol-5-yl)but-2-enamide] | 5.42
C=CC(=O)Nc1cc2ccn(-c3ccc(C(F)(F)F)cc3)c2cc1Cl [Example 77, N-(6-chloro-1-(4-(trifluoromethyl)phenyl)-1H-indol-5-yl)acrylamide] | 6.27
C=CC(=O)Nc1cc2ccn(Cc3cccc(C(F)(F)F)c3)c2cc1Cl [Example 78, N-(6-chloro-1-(3-(trifluoromethyl)benzyl)-1H-indol-5-yl)acrylamide] | 6.85
C=CC(=O)Nc1cc(Cl)c2c(ccn2Cc2cccc(C(F)(F)F)c2)c1 [Example 79, N-(7-chloro-1-(3-(trifluoromethyl)benzyl)-1H-indol-5-yl)acrylamide] | 7.07
C=CC(=O)Nc1cc2ccn(Cc3cccc(C(F)(F)F)c3)c2cc1F [Example 80, N-(6-fluoro-1-(3-(trifluoromethyl)benzyl)-1H-indol-5-yl)acrylamide] | 7.74
C=CC(=O)Nc1cc(Cl)c2c(ccn2-c2ccc(C(F)(F)F)cc2)c1 [Example 81, N-(7-chloro-1-(4-(trifluoromethyl)phenyl)-1H-indol-5-yl)acrylamide] | 7.17
C=CC(=O)Nc1ccc2c(c1)c(CO)cn2-c1ccc(C(F)(F)F)cc1 [Example 82, N-(3-(hydroxymethyl)-1-(4-(trifluoromethyl)phenyl)-1H-indol-5-yl)acrylamide] | 6.80
C=CC(=O)Nc1ccc2c(c1)c(C(N)=O)cn2Cc1cccc(C(F)(F)F)c1 [Example 83, 5-Acrylamido-1-(3-(trifluoromethyl)benzyl)-1H-indole-3-carboxamide] | 5.75
C=CC(=O)Nc1ccc2c(c1)c(C(N)=O)cn2-c1ccc(C(F)(F)F)cc1 [Example 84, 5-Acrylamido-1-(4-(trifluoromethyl)phenyl)-1H-indole-3-carboxamide] | 6.21
